# The source made the active and inactive calls. The calls are words filed in the database; no cut-off is given here.
# Tests used:
# [1] = Antioxidant activity against Fe2+-induced lipid peroxidation at 20 uM by fluorescence spectroscopy; assay type: functional
# [2] = Antioxidant activity against Fe2+-induced lipid peroxidation at 100 uM by fluorescence spectroscopy; assay type: functional
Compound,Activity [1] [%],Activity [2]
COC(=O)[C@]1(O)C[C@@H](O)[C@@H](O)[C@H](OC(=O)/C=C/c2ccc(O)c(O)c2)C1,50,
Cc1cc(C(C)(C)C)c(O)c(C(C)(C)C)c1,> 90,
CC(C)(C)c1cc(O)ccc1O,> 90,
O=C(O)C(O)Cc1ccccc1O (racemic),,inactive
O=C(/C=C/c1ccc(O)c(O)c1)O[C@@H]1CC[C@@H](O)[C@H]1O,80,
O=C(/C=C/c1ccc(O)c(O)c1)OC1[C@H](O)CC[C@@H]1O (stereo partly specified),80,
